# Laboratory results reported in patent US20170150719A1, “FUNGICIDAL PYRAZOLES AND THEIR MIXTURES” (E I DU PONT DE NEMOURS AND COMPANY, priority 2010, published 2017).
# Experiments:
# [1] = tested on: Blumeria graminis f. sp. tritici; assay: Test K (K1-K5): wheat powdery mildew, Compound 81 alone and in mixtures, observed and Colby expected control; assay type: in vivo; details: for Test K5 Obsd, disease control rating: wheat powdery mildew
# [2] = tested on: Puccinia recondita f sp. tritici; assay: Test L (L1-L5): wheat leaf rust, Compound 81 alone and in mixtures, observed and Colby expected control; assay type: in vivo; details: for Test L5 Obsd, disease control rating: wheat leaf rust
# Septoria tritici [3] = assay: Test M (M1-M5): wheat leaf blotch, Compound 81 alone and in mixtures, observed and Colby expected control; assay type: in vivo
# Phytophthora infestans = assay: whole plant or invertebrate; assay type: in vivo; details: tomato late blight, preventive spray; 100 = 100% disease control; rating without asterisk
# [4] = tested on: Puccinia recondita f. sp. tritici; assay: Test G: wheat leaf rust, spray after inoculation (curative) on wheat seedlings, visual disease rating; assay type: in vivo; details: 100 = 100% disease control; for Test G rating (% disease control): spray after inoculation, rating without asterisk; for Test G rating (disease control): sprayed after inoculation, 0 = no disease control
# Source text: (§1) A hyphen (-) indicates no test results.
# [5] = tested on: Puccinia recondita f. sp. tritici; assay: Test H: wheat leaf rust, preventive spray on wheat seedlings, visual disease rating; details: wheat leaf rust, 100 = 100% disease control; for Test H rating (% disease control): preventive spray, rating without asterisk; for Test H rating (disease control): sprayed the day before inoculation, 0 = no disease control
# Botrytis cinerea = assay: Test A: tomato Botrytis, preventive spray on tomato seedlings, visual disease rating; details: tomato Botrytis, 100 = 100% disease control; for Test A rating (% disease control): preventive spray, 0 = no control relative to controls, rating without asterisk; for Test A rating (disease control): 0 = no disease control relative to the controls
# Alternaria solani = assay: Test B: tomato early blight, preventive spray on tomato seedlings, visual disease rating; details: tomato early blight, 100 = 100% disease control; for Test B rating (% disease control): preventive spray, rating without asterisk; for Test B rating (disease control): 0 = no disease control relative to the controls
# [6] = tested on: Blumeria graminis f. sp. tritici; assay: Test I: wheat powdery mildew, preventive spray on wheat seedlings, visual disease rating; details: wheat powdery mildew, 100 = 100% disease control; for Test I rating (% disease control): preventive spray, rating without asterisk; for Test I rating (disease control): 0 = no disease control relative to the controls
# Protocol: General protocol for preparing test suspensions for Tests A-I: the test compounds were first dissolved in acetone in an amount equal to 3% of the final volume and then suspended at the desired concentration (in ppm) in acetone and purified water (50/50 mix by volume) containing 250 ppm of the surfactant Trem® 014 (polyhydric alcohol esters). The resulting test suspensions were then used in Tests A-I. Each test was conducted in triplicate, and the results were averaged. Spraying a 200 ppm test suspension to the point of run-off on the test plants was the equivalent of a rate of about 800 g/ha. Unless otherwise indicated, the rating values indicate a 200 ppm test suspension was used. (An asterisk “*” next to the rating value indicates a 40 ppm test suspension was used.)
# The test suspension was sprayed to the point of run-off on wheat seedlings. The following day the seedlings were inoculated with a spore dust of Blumeria graminis f. sp. tritici (also known as Erysiphe graminis f. sp. tritici, the causal agent of wheat powdery mildew) and incubated in a growth chamber at 20° C. for 8 days, after which time visual disease ratings were made.
# Septoria nodorum = assay: Test E: Septoria glume blotch, preventive spray on wheat seedlings, visual disease rating; details: 100 = 100% disease control; for Test E rating (% disease control): Septoria glume blotch on wheat, preventive spray, rating without asterisk; for Test E rating (disease control): Septoria glume blotch, 0 = no disease control relative to the controls
# Septoria tritici [7] = assay: Test F: wheat leaf blotch, preventive spray on wheat seedlings, visual disease rating; assay type: in vivo; details: 100 = 100% disease control, 0 = no disease control relative to the controls
# Source text: as §1
smiles,measurement,setting,value
"CC1CCN(c2c(-c3c(F)cc(F)cc3F)c(Cl)nc3ncnn23)CC1 [BAS600, 5-chloro-6-(2,4,6-trifluorophenyl)-7-(4-methylpiperidin-1-yl)[1,2,4]triazolo[1,5-a]pyrimidine]",Test K3 Obsd,[1]; component (b) 0.08 ppm alone,0%
same,Test K3 Obsd,[1]; component (b) 0.4 ppm alone,0%
same,Test K3 Obsd,[1]; component (b) 2 ppm alone,96%
same,Test K3 Obsd,[1]; component (b) 10 ppm alone,100%
same,Test L3 Obsd,[2]; component (b) 0.08 ppm alone,74%
same,Test L3 Obsd,[2]; component (b) 0.4 ppm alone,88%
same,Test L3 Obsd,[2]; component (b) 2 ppm alone,99%
same,Test L3 Obsd,[2]; component (b) 10 ppm alone,100%
same,"Test M2 Obsd, disease control rating",Septoria tritici [3]; component (b) 0.016 ppm alone,0%
same,"Test M2 Obsd, disease control rating",Septoria tritici [3]; component (b) 0.08 ppm alone,0%
same,"Test M2 Obsd, disease control rating",Septoria tritici [3]; component (b) 0.4 ppm alone,93%
same,"Test M2 Obsd, disease control rating",Septoria tritici [3]; component (b) 2 ppm alone,100%
CCOc1ccc(-c2c(C)nn(C)c2Nc2c(F)cc(Cl)cc2Cl)c(F)c1 [compound 190],Test C rating (% disease control),Phytophthora infestans,0%
same,Test G rating (% disease control),[4],9%
same,Test H rating (% disease control),[5],96%
same,Test A rating (% disease control),Botrytis cinerea,100%
same,Test B rating (% disease control),Alternaria solani,82%
same,Test I rating (% disease control),[6],95%
same,Test E rating (% disease control),Septoria nodorum,0%
C=CCOC1=NS(=O)(=O)c2ccccc21 [probenazole],Test K1 Obsd,[1]; component (b) 10 ppm alone,68%
same,Test K1 Obsd,[1]; component (b) 40 ppm alone,21%
same,Test K1 Obsd,[1]; component (b) 200 ppm alone,71%
same,Test L1 Obsd,[2]; component (b) 10 ppm alone,9%
same,Test L1 Obsd,[2]; component (b) 40 ppm alone,18%
same,Test L1 Obsd,[2]; component (b) 200 ppm alone,18%
same,"Test M1 Obsd, disease control rating",Septoria tritici [3]; component (b) 10 ppm alone,0%
same,"Test M1 Obsd, disease control rating",Septoria tritici [3]; component (b) 40 ppm alone,0%
same,"Test M1 Obsd, disease control rating",Septoria tritici [3]; component (b) 200 ppm alone,0%
CC(C1CC1)C(O)(Cn1cncn1)c1ccc(Cl)cc1 (stereo not drawn) [cyproconazole],"Test K5 Obsd, disease control rating",[1]; component (b) 0.016 ppm alone,64%
same,"Test K5 Obsd, disease control rating",[1]; component (b) 0.08 ppm alone,64%
same,"Test K5 Obsd, disease control rating",[1]; component (b) 0.4 ppm alone,79%
same,"Test K5 Obsd, disease control rating",[1]; component (b) 2 ppm alone,96%
same,"Test L5 Obsd, disease control rating",[2]; component (b) 0.016 ppm alone,27%
same,"Test L5 Obsd, disease control rating",[2]; component (b) 0.08 ppm alone,80%
same,"Test L5 Obsd, disease control rating",[2]; component (b) 0.4 ppm alone,92%
same,"Test L5 Obsd, disease control rating",[2]; component (b) 2 ppm alone,100%
same,"Test M2 Obsd, disease control rating",Septoria tritici [3]; component (b) 0.4 ppm alone,0%
same,"Test M2 Obsd, disease control rating",Septoria tritici [3]; component (b) 2 ppm alone,0%
same,"Test M2 Obsd, disease control rating",Septoria tritici [3]; component (b) 10 ppm alone,0%
same,"Test M2 Obsd, disease control rating",Septoria tritici [3]; component (b) 40 ppm alone,98%
"Cc1nn(C)c(Nc2c(F)cc(F)cc2Br)c1-c1ccc(F)cc1Br [Compound 195, N-(2-bromo-4,6-difluorophenyl)-4-(2-bromo-4-fluorophenyl)-1,3-dimethyl-1H-pyrazol-5-amine]",Test C rating (% disease control),Phytophthora infestans,0%
same,Test G rating (% disease control),[4],89%
same,Test B rating (% disease control),Alternaria solani,100%
same,Test E rating (% disease control),Septoria nodorum,99%
CC(C)C1C2CCC1c1c(NC(=O)c3cn(C)nc3C(F)F)cccc12 (stereo not drawn) [isopyrazam],Test K3 Obsd,[1]; component (b) 0.08 ppm alone,0%
same,Test K3 Obsd,[1]; component (b) 0.4 ppm alone,50%
same,Test K3 Obsd,[1]; component (b) 2 ppm alone,99%
same,Test K3 Obsd,[1]; component (b) 10 ppm alone,99%
same,"Test L5 Obsd, disease control rating",[2]; component (b) 0.016 ppm alone,68%
same,"Test L5 Obsd, disease control rating",[2]; component (b) 0.08 ppm alone,89%
same,"Test L5 Obsd, disease control rating",[2]; component (b) 0.4 ppm alone,100%
same,"Test L5 Obsd, disease control rating",[2]; component (b) 2 ppm alone,100%
same,"Test M2 Obsd, disease control rating",Septoria tritici [3]; component (b) 0.08 ppm alone,0%
same,"Test M2 Obsd, disease control rating",Septoria tritici [3]; component (b) 0.4 ppm alone,77%
same,"Test M2 Obsd, disease control rating",Septoria tritici [3]; component (b) 2 ppm alone,93%
same,"Test M2 Obsd, disease control rating",Septoria tritici [3]; component (b) 10 ppm alone,100%
CCCN(CC)CC1COC2(CCC(C(C)(C)C)CC2)O1 (stereo not drawn) [spiroxamine],Test K3 Exp,[1]; component (b) 0.4 ppm alone,0%
same,Test K3 Obsd,[1]; component (b) 0.4 ppm alone,0%
same,Test K3 Exp,[1]; component (b) 2 ppm alone,0%
same,Test K3 Obsd,[1]; component (b) 2 ppm alone,0%
same,Test K3 Exp,[1]; component (b) 10 ppm alone,0%
same,Test K3 Obsd,[1]; component (b) 10 ppm alone,0%
same,Test K3 Exp,[1]; component (b) 40 ppm alone,91%
same,Test K3 Obsd,[1]; component (b) 40 ppm alone,99%
same,Test M5 Obsd disease control rating,Septoria tritici [3]; component (b) alone 10 ppm,0%
same,Test M5 Obsd disease control rating,Septoria tritici [3]; component (b) alone 40 ppm,3%
same,Test M5 Obsd disease control rating,Septoria tritici [3]; component (b) alone 200 ppm,0%
CCOc1ccc(-c2c(C)nn(C)c2Nc2c(F)cc(Cl)cc2F)c(F)c1 [compound 189],Test C rating (% disease control),Phytophthora infestans,0%
same,Test G rating (% disease control),[4],0%
same,Test H rating (% disease control),[5],98%
same,Test A rating (% disease control),Botrytis cinerea,100%
same,Test B rating (% disease control),Alternaria solani,88%
same,Test I rating (% disease control),[6],98%
same,Test E rating (% disease control),Septoria nodorum,90%
Fc1ccc(Oc2ccnc3cc(Cl)cc(Cl)c23)cc1 [quinoxyfen],"Test K5 Obsd, disease control rating",[1]; component (b) 0.016 ppm alone,21%
same,"Test K5 Obsd, disease control rating",[1]; component (b) 0.08 ppm alone,29%
same,"Test K5 Obsd, disease control rating",[1]; component (b) 0.4 ppm alone,64%
same,"Test K5 Obsd, disease control rating",[1]; component (b) 2 ppm alone,93%
same,Test L1 Obsd,[2]; component (b) 10 ppm alone,0%
same,Test L1 Obsd,[2]; component (b) 40 ppm alone,0%
same,Test L1 Obsd,[2]; component (b) 200 ppm alone,0%
same,Test M5 Obsd disease control rating,Septoria tritici [3]; component (b) alone 10 ppm,0%
same,Test M5 Obsd disease control rating,Septoria tritici [3]; component (b) alone 40 ppm,0%
same,Test M5 Obsd disease control rating,Septoria tritici [3]; component (b) alone 200 ppm,8%
COc1ccc(-c2c(C)nn(C)c2Nc2c(F)cc(Cl)cc2Cl)c(F)c1 [compound 191],Test C rating (% disease control),Phytophthora infestans,0%
same,Test G rating (% disease control),[4],46%
same,Test H rating (% disease control),[5],99%
same,Test A rating (% disease control),Botrytis cinerea,100%
same,Test B rating (% disease control),Alternaria solani,99%
same,Test I rating (% disease control),[6],99%
same,Test E rating (% disease control),Septoria nodorum,92%
"Cc1nn(C)c(Nc2c(F)cccc2Cl)c1-c1ccc(F)cc1F [Compound 275, N-(2-chloro-6-fluorophenyl)-4-(2,4-difluorophenyl)-1,3-dimethyl-1H-pyrazol-5-amine]",Test C rating (% disease control),Phytophthora infestans,0%
same,Test G rating (% disease control),[4],9%
same,Test B rating (% disease control),Alternaria solani,99%
same,Test E rating (% disease control),Septoria nodorum,60%
CC(C)CC(C)c1sccc1NC(=O)c1cn(C)nc1C(F)(F)F (stereo not drawn) [penthiopyrad],Test K3 Obsd,[1]; component (b) 0.08 ppm alone,0%
same,Test K3 Obsd,[1]; component (b) 0.4 ppm alone,0%
same,Test K3 Obsd,[1]; component (b) 2 ppm alone,99%
same,Test K3 Obsd,[1]; component (b) 10 ppm alone,100%
same,"Test L5 Obsd, disease control rating",[2]; component (b) 0.016 ppm alone,9%
same,"Test L5 Obsd, disease control rating",[2]; component (b) 0.08 ppm alone,55%
same,"Test L5 Obsd, disease control rating",[2]; component (b) 0.4 ppm alone,68%
same,"Test L5 Obsd, disease control rating",[2]; component (b) 2 ppm alone,99%
same,"Test M2 Obsd, disease control rating",Septoria tritici [3]; component (b) 0.08 ppm alone,0%
same,"Test M2 Obsd, disease control rating",Septoria tritici [3]; component (b) 0.4 ppm alone,0%
Cn1cc(C(=O)Nc2ccc(F)cc2-c2ccc(Cl)c(Cl)c2)c(C(F)F)n1 [bixafen],Test K3 Obsd,[1]; component (b) 0.08 ppm alone,0%
same,Test K3 Obsd,[1]; component (b) 0.4 ppm alone,0%
same,Test K3 Obsd,[1]; component (b) 2 ppm alone,64%
same,Test K3 Obsd,[1]; component (b) 10 ppm alone,99%
same,Test L3 Obsd,[2]; component (b) 0.08 ppm alone,9%
same,Test L3 Obsd,[2]; component (b) 0.4 ppm alone,88%
same,Test L3 Obsd,[2]; component (b) 2 ppm alone,99%
same,Test L3 Obsd,[2]; component (b) 10 ppm alone,100%
same,"Test M2 Obsd, disease control rating",Septoria tritici [3]; component (b) 0.08 ppm alone,0%
same,"Test M2 Obsd, disease control rating",Septoria tritici [3]; component (b) 0.4 ppm alone,33%
same,"Test M2 Obsd, disease control rating",Septoria tritici [3]; component (b) 2 ppm alone,89%
CCOc1ccc(-c2c(C)nn(C)c2Nc2c(F)cc(F)cc2Cl)c(F)c1 [compound 188],Test C rating (% disease control),Phytophthora infestans,0%
same,Test G rating (% disease control),[4],0%
same,Test H rating (% disease control),[5],98%
same,Test A rating (% disease control),Botrytis cinerea,100%
same,Test B rating (% disease control),Alternaria solani,99%
same,Test I rating (% disease control),[6],98%
same,Test E rating (% disease control),Septoria nodorum,92%
COc1ccc(Nc2c(-c3ccc(F)cc3Br)c(C)nn2C)c(Cl)c1 [compound 103],Test F rating (disease control),Septoria tritici [7],100%
same,Test G rating (disease control),[4],63%
same,Test H rating (disease control),[5],99%
same,Test A rating (disease control),Botrytis cinerea,99%
same,Test B rating (disease control),Alternaria solani,83%
same,Test I rating (disease control),[6],99%
same,Test E rating (disease control),Septoria nodorum,0%
COc1ccc(-c2c(C)nn(C)c2Oc2c(F)cc(C#N)cc2F)c(Cl)c1 [compound 41],Test F rating (disease control),Septoria tritici [7],100%
same,Test G rating (disease control),[4],92%
same,Test H rating (disease control),[5],100%
same,Test A rating (disease control),Botrytis cinerea,100%
same,Test B rating (disease control),Alternaria solani,99%
same,Test I rating (disease control),[6],99%
same,Test E rating (disease control),Septoria nodorum,100%
Cc1nn(C)c(Nc2c(F)cc(F)cc2Cl)c1-c1c(F)cccc1Cl [compound 87],Test F rating (disease control),Septoria tritici [7],100%
same,Test G rating (disease control),[4],0%
same,Test H rating (disease control),[5],100%
same,Test A rating (disease control),Botrytis cinerea,100%
same,Test B rating (disease control),Alternaria solani,93%
same,Test I rating (disease control),[6],100%
same,Test E rating (disease control),Septoria nodorum,87%
